Laboratory results published in ChEMBL document CHEMBL5532643, “Design and synthesis of etrasimod derivatives as potent antibacterial agents against Gram-positive bacteria” (Eur J Med Chem, 2024).
≈ marks a conversion by molar mass, not a printed value. Where “and” joins values, the source holds several entries; their conditions need not be identical. Equal values may be shown once.

Assays:
Type in all cases: functional
Staphylococcus aureus [1] = experiment: Antibacterial activity against Staphylococcus aureus ATCC 25923 assessed as reduction in bacterial growth incubated for 18 to 20 hrs by broth microdilution assay; settings: time 18-20 hrs
Staphylococcus aureus [2] = experiment: Antibacterial activity against Staphylococcus aureus ATCC 25923 assessed as inhibition of bacterial growth at 40 uM incubated for 18 to 24 hrs by broth microdilution assay relative to control; settings: time 18-24 hrs
Staphylococcus aureus [3] = experiment: Antibiofilm activity against Staphylococcus aureus ATCC 25923 assessed as inhibition of biofilm viability at 100 uM incubated for 18 to 20 hrs by resazurin staining based assay; settings: time 18-20 hrs
Staphylococcus aureus [4] = experiment: Antibiofilm activity against Staphylococcus aureus ATCC 25923 assessed as inhibition of biofilm biomass at 100 uM incubated for 18 to 20 hrs by crystal violet staining based assay; settings: time 18-20 hrs
Staphylococcus aureus [5] = experiment: Antibacterial activity against Staphylococcus aureus ATCC 43300 assessed as reduction in bacterial growth incubated for 18 to 20 hrs by broth microdilution assay; settings: time 18-20 hrs
Staphylococcus aureus [6] = experiment: Antibacterial activity against […] Staphylococcus aureus ATCC 43300 assessed as reduction in bacterial growth incubated for 18 to 20 hrs by broth microdilution assay; settings: time 18-20 hrs
[7] = test system: Staphylococcus epidermidis; experiment: Antibacterial activity against Staphylococcus epidermidis RP62A assessed as reduction in bacterial growth incubated for 18 to 20 hrs by broth microdilution assay; settings: time 18-20 hrs
[8] = test system: Staphylococcus epidermidis; experiment: Antibacterial activity against […] Staphylococcus epidermidis RP62A assessed as reduction in bacterial growth incubated for 18 to 20 hrs by broth microdilution assay; settings: time 18-20 hrs
Enterococcus faecalis [9] = experiment: Antibacterial activity against Enterococcus faecalis ATCC 29212 assessed as reduction in bacterial growth incubated for 18 to 20 hrs by broth microdilution assay; settings: time 18-20 hrs
Enterococcus faecalis [10] = experiment: Antibacterial activity against vancomycin-resistant Enterococcus faecalis ATCC 51575 assessed as reduction in bacterial growth incubated for 18 to 20 hrs by broth microdilution assay; settings: time 18-20 hrs
Enterococcus faecium = experiment: Antibacterial activity against vancomycin-resistant Enterococcus faecium ATCC 700221 assessed as reduction in bacterial growth incubated for 18 to 20 hrs by broth microdilution assay; settings: time 18-20 hrs
Pseudomonas aeruginosa = experiment: Antibacterial activity against Pseudomonas aeruginosa ATCC 15442 assessed as reduction in bacterial growth incubated for 18 to 20 hrs by broth microdilution assay; settings: time 18-20 hrs
Acinetobacter baumannii = experiment: Antibacterial activity against Acinetobacter baumannii NCTC 13423 assessed as reduction in bacterial growth incubated for 18 to 20 hrs by broth microdilution assay; settings: time 18-20 hrs

| SMILES | MIC (Staphylococcus aureus [1]) | inhibition at 40 µM (Staphylococcus aureus [2]) | inhibition at 100 µM (Staphylococcus aureus [3]) | inhibition at 100 µM (Staphylococcus aureus [4]) | MIC (Staphylococcus aureus [5]) | MIC (Staphylococcus aureus [6]) | MIC [7] | MIC [8] | MIC (Enterococcus faecalis [9]) | MIC (Enterococcus faecalis [10]) | MIC (Enterococcus faecium) | MIC (Pseudomonas aeruginosa) | MIC (Acinetobacter baumannii) |
| --- | --- | --- | --- | --- | --- | --- | --- | --- | --- | --- | --- | --- | --- |
| Cc1[nH]c2ccc(OCc3ccc(C4CCCC4)c(C(F)(F)F)c3)cc2c1CC(=O)O | 20 µM and 8.6 µg/mL | ≤ 90% | > 90% | > 90% | – | – | – | – | – | – | – | – | – |
| O=C(O)Cc1c[nH]c2ccc(OCc3ccc(C4CCCCC4)c(C(F)(F)F)c3)cc12 | 10 µM and 4.3 µg/mL | ≤ 90% | > 90% | > 90% | 10 µM (≈ 4.31 µg/mL) | 10 µM (≈ 4.31 µg/mL) | 10 µM (≈ 4.31 µg/mL) | 10 µM (≈ 4.31 µg/mL) | 20 µM (≈ 8.63 µg/mL) | 20 µM (≈ 8.63 µg/mL) | 20 µM (≈ 8.63 µg/mL) | > 200 µM | > 200 µM |
| CS(=O)(=O)NC(=O)CC1CCc2c1[nH]c1ccc(OCc3ccc(C4CCCC4)c(C(F)(F)F)c3)cc21 (stereo unspecified) | 5 µM and 2.7 µg/mL | ≤ 90% | > 90% | > 90% | 5 µM (≈ 2.67 µg/mL) | 5 µM (≈ 2.67 µg/mL) | 10 µM (≈ 5.35 µg/mL) | 10 µM (≈ 5.35 µg/mL) | 5 µM (≈ 2.67 µg/mL) | 5 µM (≈ 2.67 µg/mL) | 10 µM (≈ 5.35 µg/mL) | > 200 µM | > 200 µM |
| O=C(O)CC1CCc2c1[nH]c1ccc(OCc3noc(-c4ccc(C(F)(F)F)cc4)n3)cc21 (stereo unspecified) | > 40 µM and > 18.3 µg/mL | ≤ 90% | > 90% | > 90% | – | – | – | – | – | – | – | – | – |
| O=C(O)CC1CCc2c1[nH]c1ccc(OCc3ccc(C4CCCC4)cc3)cc21 (stereo unspecified) | 20 µM and 7.8 µg/mL | ≤ 90% | > 90% | > 90% | – | – | – | – | – | – | – | – | – |
| O=C(O)CC1CCc2c1[nH]c1ccc(OCc3ccc(C4CCCC4)c(C(F)(F)F)c3)cc21 (racemic) | 5 µM and 2.3 µg/mL | ≤ 90% | > 90% | > 90% | – | – | – | – | – | – | – | – | – |
| O=C(O)CC1CCc2c1[nH]c1ccc(OCc3cccc(C(F)(F)F)c3)cc21 (stereo unspecified) | > 40 µM and > 15.6 µg/mL | ≤ 90% | > 90% | > 90% | – | – | – | – | – | – | – | – | – |
| O=C(O)CC1CCc2c1[nH]c1ccc(OCc3ccc(C4CCCC4)c(OC(F)(F)F)c3)cc21 (stereo unspecified) | 5 µM and 2.4 µg/mL | ≤ 90% | > 90% | > 90% | – | – | – | – | – | – | – | – | – |
| O=C(O)c1ccc(OCc2ccc(C3CCCC3)c(C(F)(F)F)c2)cn1 | 10 µM and 3.7 µg/mL | ≤ 90% | > 90% | > 90% | 5 µM (≈ 1.83 µg/mL) | 5 µM (≈ 1.83 µg/mL) | 5 µM (≈ 1.83 µg/mL) | 10 µM (≈ 3.65 µg/mL) | 10 µM (≈ 3.65 µg/mL) | 20 µM (≈ 7.31 µg/mL) | 20 µM (≈ 7.31 µg/mL) | > 200 µM | > 200 µM |
| O=C(O)CC1CCc2c1[nH]c1ccc(OCc3ccc(C4CCCCC4)c(OC(F)(F)F)c3)cc21 (stereo unspecified) | 5 µM and 2.4 µg/mL | ≤ 90% | > 90% | > 90% | 5 µM (≈ 2.44 µg/mL) | 5 µM (≈ 2.44 µg/mL) | 10 µM (≈ 4.88 µg/mL) | 10 µM (≈ 4.88 µg/mL) | 5 µM (≈ 2.44 µg/mL) | 5 µM (≈ 2.44 µg/mL) | 5 µM (≈ 2.44 µg/mL) | > 200 µM | > 200 µM |
| O=C(O)CC1CCc2c1[nH]c1ccc(OCc3ccc(-c4ccc(Cl)s4)c(C(F)(F)F)c3)cc21 (stereo unspecified) | 5 µM and 2.5 µg/mL | ≤ 90% | > 90% | > 90% | – | – | – | – | – | – | – | – | – |
| O=C(O)CCc1c[nH]c2ccc(OCc3ccc(C4CCCC4)c(C(F)(F)F)c3)cc12 | 20 µM and 8.6 µg/mL | ≤ 90% | > 90% | > 90% | – | – | – | – | – | – | – | – | – |
| CCCCCCCCOc1ccc2[nH]c3c(c2c1)CCC3CC(=O)O (stereo unspecified) | 40 µM and 13.7 µg/mL | ≤ 90% | > 90% | > 90% | – | – | – | – | – | – | – | – | – |
| O=C(O)Cn1ccc2cc(OCc3ccc(C4CCCC4)c(C(F)(F)F)c3)ccc21 | 20 µM and 8.3 µg/mL | ≤ 90% | > 90% | > 90% | – | – | – | – | – | – | – | – | – |
| CCOC(=O)CC1CCc2c1[nH]c1ccc(OCc3ccc(C4CCCC4)c(C(F)(F)F)c3)cc21 (stereo unspecified) | > 40 µM and > 19.4 µg/mL | ≤ 90% | > 90% | > 90% | – | – | – | – | – | – | – | – | – |
